US20090197843A1, “Treatment of Prevention of Unscheduled Bleeding in Women on Progestogen Containing Medication” (PANTARHEI BIOSCIENCE B.V., priority 2004, published 2009)

What was measured:
Assay type in all cases: in vivo
[1] = system: healthy women of childbearing age; experiment: Clinical study: low-dose oral contraceptive (30 μg ethinylestradiol/100 μg levonorgestrel) with or without enalapril; settings: 5 mg enalapril with oral contraceptive (30 μg ethinylestradiol, 100 μg levonorgestrel), 84 days; vs oral contraceptive alone
Protocol: A clinical study is conducted in 50 healthy women of childbearing age. Two groups of 25 women who are not using oral contraception, ‘pill starters’, are enrolled. All subjects receive a low-dose oral contraceptive containing 30 μg ethinylestradiol and 100 μg levonorgestrel for 84 days. Twenty-five (25) subjects are randomized to additionally receive 5 mg enalapril as an ACE-inhibitor with the oral contraceptive during the entire study period. All subjects document any unscheduled vaginal bleeding (spotting, breakthrough bleeding) in a diary. Blood pressure is monitored intensively.

[2] = system: healthy postmenopausal women; experiment: Clinical study: continuous combined HRT (estradiol/drosperinone) with or without captopril; settings: 15 mg captopril with continuous combined HRT (1 mg estradiol, 2 mg drosperinone), three periods of 28 days; vs HRT preparation alone
Protocol: A clinical study is conducted in 50 healthy postmenopausal women, postmenopausal being defined as having had the last menstrual period at least 6 months before along with an increased FSH serum level. Two groups of 25 women who are not using any HRT are enrolled. All subjects receive a continuous combined HRT preparation containing 1 mg estradiol and 2 mg drosperinone for three periods of 28 days each. […] Subjects document any unscheduled vaginal bleeding (spotting, breakthrough bleeding) in a diary. Blood pressure is monitored intensively.

[3] = system: healthy postmenopausal women; experiment: Clinical study: continuous combined HRT (estradiol/norethisterone acetate) with or without irbesartan; settings: 50 mg irbesartan with continuous combined HRT (2 mg estradiol, 1 mg norethisterone acetate), 84 days; vs HRT preparation alone
Protocol: (§1) A clinical study is conducted in 40 healthy postmenopausal women, postmenopausal being defined as having had the last menstrual period at least 6 months before along with an increased FSH serum level. Two groups of 20 women who are not using any HRT are enrolled. All subjects receive a continuous combined HRT preparation containing 2 mg estradiol and 1 mg norethisterone acetate for 84 days. Twenty (20) subjects are randomized to additionally receive 50 mg irbesartan as an angiotensin II-receptor antagonist concomitantly with the HRT preparation during the entire study period. Subjects document any unscheduled vaginal bleeding (spotting, breakthrough bleeding) in a diary. Blood pressure is monitored intensively.

[4] = system: healthy women of childbearing age; experiment: Clinical study: contraceptive injections (150 mg medroxyprogesterone acetate) with or without irbesartan; settings: daily 75 mg irbesartan, 6 months, with two injections of 150 mg medroxyprogesterone acetate; vs contraceptive injection alone
Protocol: (§2) A clinical study is conducted in 40 healthy women of childbearing age. Two groups of 20 women are enrolled. All subjects receive two contraceptive injections containing 150 mg medroxyprogesterone acetate each with an interval of 3 months (13 weeks). Twenty (20) subjects are randomized to additionally receive daily 75 mg irbesartan as an angiotensin II-receptor antagonist during the entire study period of 6 months. All subjects document any unscheduled vaginal bleeding (spotting, breakthrough bleeding) in a diary. Blood pressure is monitored intensively.

[5] = system: healthy women of childbearing age; experiment: Clinical study: low-dose oral contraceptive (20 μg ethinylestradiol/100 μg levonorgestrel) with or without irbesartan; settings: 75 mg irbesartan with oral contraceptive (20 μg ethinylestradiol, 100 μg levonorgestrel), 84 days; vs oral contraceptive alone
Protocol: (§3) A clinical study is conducted in 40 healthy women of childbearing age. Two groups of 20 women who are not using oral contraception, ‘pill starters’, are enrolled. All subjects receive a low-dose oral contraceptive containing 20 μg ethinylestradiol and 100 μg levonorgestrel for 84 days. Twenty (20) subjects are randomized to additionally receive 75 mg irbesartan as an angiotensin II-receptor antagonist concomitantly with the oral contraceptive during the entire study period. All subjects document any unscheduled vaginal bleeding (spotting, breakthrough bleeding) in a diary. Blood pressure is monitored intensively.

[6] = system: healthy women of childbearing age; experiment: Clinical study: progestogen-only oral contraceptive (75 μg desogestrel) with or without irbesartan; settings: 50 mg irbesartan with progestogen-only oral contraceptive (75 μg desogestrel), 84 days; vs oral contraceptive alone
Protocol: as §3, with “a progestogen-only” for “a low-dose”, “containing 75” for “containing 20”, “μg desogestrel” for “μg ethinylestradiol and 100 μg levonorgestrel”, “receive 50” for “receive 75”

[7] = system: healthy postmenopausal women; experiment: Clinical study: sequentially combined HRT (estradiol/dydrogesterone) with or without irbesartan; settings: 75 mg irbesartan with sequentially combined HRT (2 mg estradiol, 10 mg dydrogesterone), 3 cycles of 28 days; vs HRT preparation alone
Protocol: as §1, with “sequentially” for “continuous”, “for 3 cycles of 28 days each. One cycle comprises 14 days of” for “containing”, “only followed by 14 days of 2” for “and 1”, “estradiol” for “norethisterone acetate”, “14 days combined with 10 mg dydrogesterone.” for “84 days.”, “75” for “50”

[8] = system: healthy women of childbearing age; experiment: Clinical study: contraceptive implant (68 mg etonogestrel) with or without irbesartan; settings: 75 mg irbesartan, 6 months, with implant containing 68 mg etonogestrel; vs contraceptive implant alone
Protocol: as §2, with “an implant” for “two contraceptive injections”, “68” for “150”, “etonogestrel.” for “medroxyprogesterone acetate each with an interval of 3 months (13 weeks).”, “receive” for “receive daily”, “antagonist concomitantly with the contraceptive implant” for “antagonist”

In the case of `CCOC(=O)[C@H](CCc1ccccc1)N[C@@H](C)C(=O)N1CCC[C@H]1C(=O)O` [enalapril], the “blood pressure pattern between groups” value [1] is reported as “does not differ significantly”, the “episodes of unscheduled bleeding” value [1] is reported as “fewer episodes of unscheduled bleeding” and the “intensity of blood loss” value [1] is reported as “less intense blood loss, if any”. For the same compound, the overall safety profile [1] was “comparable to that of the group receiving the oral contraceptive alone”.
In the case of `C[C@H](CS)C(=O)N1CCC[C@H]1C(=O)O` [captopril], the Efficacy between groups [2] is reported as “do not differ significantly”, the “episodes of unscheduled bleeding” value [2] is reported as “fewer episodes of unscheduled bleeding” and the overall safety profile [2] is reported as “comparable to that of the group receiving the HRT preparation alone”.
For `CCCCC1=NC2(CCCC2)C(=O)N1Cc1ccc(-c2ccccc2-c2nnn[nH]2)cc1` [irbesartan], the Efficacy between groups [3] was “do not differ significantly”, the “blood pressure pattern between groups” value [3] was “do not differ significantly” and the “episodes of unscheduled bleeding” value [3] was “fewer episodes of unscheduled bleeding”. For the same compound, the “intensity of blood loss” value [3] was “less intense blood loss, if any”, the overall safety profile [3] was “comparable to that of the group receiving the HRT preparation alone” and the “blood pressure pattern between groups” value [4] was “does not differ significantly”. For the same compound, the “episodes of unscheduled bleeding” value [4] was “fewer episodes of unscheduled bleeding”, the “intensity of blood loss” value [4] was “less intense blood loss, if any” and the overall safety profile [4] was “comparable to that of the group receiving the contraceptive injection alone”. For the same compound, the “blood pressure pattern between groups” value [5] was “does not differ significantly”, the “episodes of unscheduled bleeding” value [5] was “fewer episodes of unscheduled bleeding” and the “intensity of blood loss” value [5] was “less intense blood loss, if any”. The overall safety profile [5] was “comparable to that of the group receiving the oral contraceptive alone”, the “blood pressure pattern between groups” value [6] was “does not differ significantly” and the “episodes of unscheduled bleeding” value [6] was “fewer episodes of unscheduled bleeding”. For the same compound, the “intensity of blood loss” value [6] was “less intense blood loss, if any”, the overall safety profile [6] was “comparable to that of the group receiving the oral contraceptive alone” and the Efficacy between groups [7] was “do not differ”. For the same compound, the “blood pressure pattern between groups” value [7] was “do not differ”, the “episodes of unscheduled bleeding” value [7] was “fewer episodes of unscheduled bleeding” and the “intensity of blood loss” value [7] was “less intense blood loss, if any”. The overall safety profile [7] was “comparable to that of the group receiving the HRT preparation alone”, the “blood pressure pattern between groups” value [8] was “does not differ significantly” and the “episodes of unscheduled bleeding” value [8] was “fewer episodes of unscheduled bleeding”. The “intensity of blood loss” value [8] was “less intense blood loss, if any” and the overall safety profile [8] was “comparable to that of the group receiving the contraceptive implant alone”.
